This is an account of results in patent US20250059205A1, “Heterocyclic Compounds and Methods of Use” (AMGEN INC., priority 2021, published 2025).

The target of assay [1] is His-tagged KRAS G12D protein (Homo sapiens, UniProt P01116, G12D). Nature of the assay: KRAS G12D TR-FRET Assay. It is filed as binding.
For assay [2], the target named is GDP-bound KRAS protein (aa 1-169), containing both G12D and C118A amino acid substitutions (Homo sapiens, UniProt P01116, C118A/G12D). Kind of assay: KRAS G12D Coupled Nucleotide Exchange Assay. It is filed as biochemical. The following applies: 2 h compound pre-incubation. As for the experimental part: Following compound pre-incubation, purified SOS protein (aa 564-1049) and GTP (Roche 10106399001) were added to the assay wells and incubated for an additional 30 min. […] The assay plates were then read on a PerkinElmer EnVision Multilabel Reader, using AlphaScreen® technology, and data were analyzed using a 4-parameter logistic model to calculate IC50 values.

Assay [3] deals with Phosphorylation of ERK1/2 in A-427 cells. Kind of assay: Phospho-ERK1/2 MSD Assay (A-427 cells). It is filed as cell-based. The following applies: Homo sapiens, A-427, 2 h, 2 h treatment, read-out: p-ERK (A427 cells) IC50. As for the experimental part: A-427 (ATCC® HTB-53™) cells were cultured in RPMI 1640 Medium (ThermoFisher Scientific 11875093) containing 10% fetal bovine serum (ThermoFisher Scientific 16000044) and 1× penicillin-streptomycin-glutamine (ThermoFisher Scientific 10378016). Sixteen hours prior to compound treatment, A-427 cells were seeded in 96-well cell culture plates at a density of 25,000 cells/well and incubated at 37° C., 5% CO2. A compound dose-response titration was diluted in growth media, added to appropriate wells of a cell culture plate, and then incubated at 37° C., 5% CO2 for 2 h. Following compound treatment, cells were washed with ice-cold Dulbecco's phosphate-buffered saline, no Ca^2+ or Mg^2+ (ThermoFisher Scientific 14190144), and then lysed in RIPA buffer (50 mM Tris-HCl pH 7.5, 1% Igepal, 0.5% sodium deoxycholate, 150 mM NaCl, and 0.5% sodium dodecyl sulfate) containing protease inhibitors (Roche 4693132001) and phosphatase inhibitors (Roche 4906837001). Phosphorylation of ERK1/2 in compound-treated lysates was assayed using Phospho-ERK1/2 Whole Cell Lysate kits (Meso Scale Discovery K151DWD) according to the manufacturer's protocol. Assay plates were read on a Meso Scale Discovery Sector Imager 6000, and data were analyzed using a 4-parameter logistic model to calculate IC50 values.

Assay [4] deals with Phosphorylation of ERK1/2 in AsPC-1 cells. Kind of assay: Phospho-ERK1/2 MSD Assay (AsPC-1 cells). In kind it is cell-based. The note with it: Homo sapiens, ASPC1, 2 h, 2 hours treatment, read-out: p-ERK (AsPC-1 cells) IC50. In a few lines:
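Read-out: MSD electrochemiluminescent detection of phosphorylated ERK1/2 in whole-cell lysates, fitted to a 4-parameter logistic curve for IC50. Prior to lysis, AsPC-1 cells (25,000 per well) received a 2 h compound dose-response at 37 °C.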

Sequence of GDP-bound KRAS protein (aa 1-169), containing both G12D and C118A amino acid substitutions (P01116 1-169 isoform P01116-2 G12D/C118A): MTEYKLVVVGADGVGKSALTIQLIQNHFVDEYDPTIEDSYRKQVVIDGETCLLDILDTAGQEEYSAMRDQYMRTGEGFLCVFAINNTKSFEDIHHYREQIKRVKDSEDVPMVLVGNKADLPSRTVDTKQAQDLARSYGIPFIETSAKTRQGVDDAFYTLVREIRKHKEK
Sequence of His-tagged KRAS G12D protein (P01116 1-188 isoform P01116-2 G12D): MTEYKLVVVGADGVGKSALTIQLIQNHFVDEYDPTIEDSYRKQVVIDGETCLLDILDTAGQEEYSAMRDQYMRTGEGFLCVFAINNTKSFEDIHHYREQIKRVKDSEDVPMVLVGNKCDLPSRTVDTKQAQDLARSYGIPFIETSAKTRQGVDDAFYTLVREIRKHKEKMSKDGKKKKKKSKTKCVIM

One may read the IC50 as the concentration needed to halve the response being measured. For the molecule `CCc1c(F)ccc2cc(O)cc(-c3c(N)cc4c(N5C[C@H]6CC[C@@H](C5)N6)nc(OC[C@@]56CCCN5C[C@H](F)C6)nc4c3F)c12` [Example 202, 4-(6-Amino-4-((1R,5S)-3,8-diazabicyclo[3.2.1]octan-3-yl)-8-fluoro-2-(((2R,7aS)-2-fluorotetrahydro-1H-pyrrolizin-7a(5H)-yl)methoxy)quinazolin-7-yl)-5-ethyl-6-fluoronaphthalen-2-ol], the half-maximal inhibitory concentration (IC50) was found to be 4 nM in assay [1], 9 nM in assay [3] and 175 nM in assay [4]. For the same molecule, the “Avg 2 h Coupled Exchange IC50” value in assay [2] was found to be 4 nM.

Regarding `C#Cc1c(F)ccc2cc(O)cc(-c3c(F)cc4c(N5C[C@H]6CC[C@@H](C5)N6)nc(OC[C@@]56CCCN5C[C@H](F)C6)nc4c3F)c12` [Example 189, 4-(4-((1R,5S)-3,8-diazabicyclo[3.2.1]octan-3-yl)-6,8-difluoro-2-(((2R,7aS)-2-fluorotetrahydro-1H-pyrrolizin-7a(5H)-yl)methoxy)quinazolin-7-yl)-5-ethynyl-6-fluoronaphthalen-2-ol], the values for the IC50 in assay [1], in assay [3] and in assay [4] were 4 nM, 1 nM and 2 nM, respectively. Moreover, the “Avg 2 h Coupled Exchange IC50” value in assay [2] came out at 3 nM.

Regarding `Oc1cc(-c2c(F)cc3c(N4C[C@@H]5C[C@H]4CN5)nc(OC[C@@]45CCCN4C[C@H](F)C5)nc3c2F)c2ccccc2c1` [Example 49, 4-(4-((1S,4S)-2,5-diazabicyclo[2.2. 1]heptan-2-yl)-6,8-difluoro-2-(((2R,7aS)-2-fluorotetrahydro-1H-pyrrolizin-7a(5H)-yl)methoxy)quinazolin-7-yl)naphthalen-2-ol], the IC50 in assay [1] was 18 nM; in assay [3], 652 nM; in assay [4], 3600 nM. In addition, the “Avg 2 h Coupled Exchange IC50” value in assay [2] stood at 9 nM.

Take `Fc1c(-c2c(C3CC3)ccc3[nH]ncc23)ccc2c(N3C[C@H]4CC[C@@H](C3)N4)nc(OC[C@@]34CCCN3C[C@H](F)C4)nc12` [Example 193, 4-((1R,5S)-3,8-diazabicyclo[3.2.1]octan-3-yl)-7-(5-cyclopropyl-1H-indazol-4-yl)-8-fluoro-2-(((2R,7aS)-2-fluorotetrahydro-1H-pyrrolizin-7a(5H)-yl)methoxy) quinazoline]: the concentration for half-maximal inhibition (IC50) worked out at 15 nM in assay [1], 482 nM in assay [3] and 1080 nM in assay [4]. Further, the “Avg 2 h Coupled Exchange IC50” value in assay [2] turned out to be 10 nM.

`CCc1c(F)ccc2cc(O)cc(-c3ccc4c(N5C[C@H]6CC[C@@H](C5)N6)nc(OCC5(O)CCCC5)nc4c3F)c12` [Example 133, 4-(4-((1R,5S)-3,8-diazabicyclo[3.2.1]octan-3-yl)-8-fluoro-2-((1-hydroxycyclopentyl)methoxy)quinazolin-7-yl)-5-ethyl-6-fluoronaphthalen-2-ol]: the IC50 in assay [1] amounted to 7 nM; in assay [3] it was 2430 nM; in assay [4], 2040 nM. For the same molecule, the “Avg 2 h Coupled Exchange IC50” value in assay [2] came out at 6 nM.

On to `C#Cc1cccc2cc(O)cc(-c3cc4nc(OC[C@@]56CCCN5C[C@H](F)C6)nc(N5C[C@H]6CC[C@@H](C5)N6)c4cc3F)c12` [Example 182, 4-(4-((1R,5S)-3,8-diazabicyclo[3.2.1]octan-3-yl)-6-fluoro-2-(((2R,7aS)-2-fluorotetrahydro-1H-pyrrolizin-7a(5H)-yl)methoxy)quinazolin-7-yl)-5-ethynylnaphthalen-2-ol], for which the figures for the IC50 in assay [1], in assay [3] and in assay [4] were 1 nM, 4 nM and 33 nM, respectively. Moreover, in assay [2], the “Avg 2 h Coupled Exchange IC50” value amounted to 2 nM.

With `CCc1c(F)ccc2cc(O)cc(-c3c(O)cc4c(N5C[C@H]6CC[C@@H](C5)N6)nc(OC[C@@]56CCCN5C[C@H](F)C6)nc4c3F)c12` [Example 199, 4-((1R,5S)-3,8-Diazabicyclo[3.2.1]octan-3-yl)-7-(8-ethyl-7-fluoro-3-hydroxynaphthalen-1-yl)-8-fluoro-2-(((2R,7aS)-2-fluorotetrahydro-1H-pyrrolizin-7a(5H)-yl)methoxy)quinazolin-6-ol], the half-inhibitory concentration (IC50) amounted to 3 nM in assay [1], 9 nM in assay [3] and 70 nM in assay [4]. Also, the “Avg 2 h Coupled Exchange IC50” value in assay [2] was 4 nM.

As to `CCc1c(F)ccc2cccc(-c3ccc4c(N5C[C@H]6CC[C@@H](C5)N6)nc(OC[C@@]56CCCN5C[C@H](F)C6)nc4c3F)c12` [Example 90, 4-((1R,5S)-3,8-diazabicyclo[3.2. 1]octan-3-yl)-7-(8-ethyl-7-fluoronaphthalen-1-yl)-8-fluoro-2-(((2R,7aS)-2-fluorotetrahydro-1H-pyrrolizin-7a(5H)-yl)methoxy) quinazoline], the IC50 in assay [1] was found to be 4 nM; in assay [3], 454 nM; in assay [4], 790 nM. Further, the “Avg 2 h Coupled Exchange IC50” value in assay [2] worked out at 3 nM.

Turning to `Oc1cc(-c2ccc3c(N4C[C@H]5CC[C@@H](C4)N5)nc(OC[C@@]45CCCN4C[C@H](F)C5)nc3c2)c2c(F)c(F)ccc2c1` [Example 77, 4-(4-((1R,5S)-3,8-diazabicyclo[3.2. 1]octan-3-yl)-2-(((2R,7aS)-2-fluorotetrahydro-1H-pyrrolizin-7a(5H)-yl)methoxy)quinazolin-7-yl)-5,6-difluoronaphthalen-2-ol], the 50% inhibitory concentration (IC50) in assay [1] turned out to be 3 nM; in assay [3], 38 nM; in assay [4], 62 nM. Also, the “Avg 2 h Coupled Exchange IC50” value in assay [2] was determined as 2 nM.

With `CN1C[C@H](F)C[C@H]1COc1nc(N2[C@@H]3CNC[C@H]2COC3)c2ccc(-c3cc(O)cc4ccccc34)c(F)c2n1` [Example 6, 4-(4-((1R,5S)-3-oxa-7,9-diazabicyclo[3.3. 1]nonan-9-yl)-8-fluoro-2-(((2S,4R)-4-fluoro-1-methylpyrrolidin-2-yl)methoxy)quinazolin-7-yl)naphthalen-2-ol], the half-inhibitory concentration (IC50) in assay [1] turned out to be 49 nM; in assay [3] it was 2310 nM; in assay [4], 5130 nM. Besides, the “Avg 2 h Coupled Exchange IC50” value in assay [2] is 22 nM.

Consider `Oc1cc(-c2c(F)cc3c(N4C[C@H]5C[C@@H](C4)N5)nc(OC[C@@]45CCCN4C[C@H](F)C5)nc3c2F)c2ccccc2c1` [Example 13, 4-(4-((1R,5S)-3,6-diazabicyclo[3.1. 1]heptan-3-yl)-6,8-difluoro-2-(((2R,7aS)-2-fluorotetrahydro-1H-pyrrolizin-7a(5H)-yl)methoxy)quinazolin-7-yl)naphthalen-2-ol], for which the IC50 in assay [1] was 7 nM; in assay [3], 238 nM; in assay [4] it was 1730 nM. Also, the “Avg 2 h Coupled Exchange IC50” value in assay [2] came out at 6 nM.

Take `CCc1cccc2cccc(-c3cc4nc(OC[C@@]56CCCN5C[C@H](F)C6)nc(N5C[C@H]6CC[C@@H](C5)N6)c4cc3F)c12` [Example 72, 4-((1R,5S)-3,8-diazabicyclo[3.2. 1]octan-3-yl)-7-(8-ethylnaphthalen-1-yl)-6-fluoro-2-(((2R,7aS)-2-fluorotetrahydro-1H-pyrrolizin-7a(5H)-yl)methoxy) quinazoline]: the results for the IC50 in assay [1], in assay [3] and in assay [4] were 23 nM, 2680 nM and 2600 nM, respectively. Also, the “Avg 2 h Coupled Exchange IC50” value in assay [2] came out at 18 nM.

`CCc1cccc2cc(O)cc(-c3ccc4c(N5C[C@H]6CC[C@@H](C5)N6)nc(OC[C@@]56CCCN5C[C@H](F)C6)nc4c3F)c12` [Example 169, 4-(4-((1R,5S)-3,8-diazabicyclo[3.2.1]octan-3-yl)-8-fluoro-2-(((2R,7aS)-2-fluorotetrahydro-1H-pyrrolizin-7a(5H)-yl)methoxy)quinazolin-7-yl)-5-ethylnaphthalen-2-ol]: the IC50 in assay [1] amounted to 5 nM; in assay [3] it was 9 nM; in assay [4], 72 nM. Also, the “Avg 2 h Coupled Exchange IC50” value in assay [2] was 5 nM.

For the molecule `Oc1cc(-c2ccc3c(N4C[C@H]5CC[C@@H](C4)N5)nc(OC[C@@]45CCCN4C[C@H](F)C5)nc3c2)c2ccccc2c1` [Example 41, 4-(4-((1R,5S)-3,8-diazabicyclo[3.2. 1]octan-3-yl)-2-(((2R,7aS)-2-fluorotetrahydro-1H-pyrrolizin-7a(5H)-yl)methoxy)quinazolin-7-yl)naphthalen-2-ol], the concentration for half-maximal inhibition (IC50) turned out to be 2 nM in assay [1], 74 nM in assay [3] and 182 nM in assay [4]. In addition, the “Avg 2 h Coupled Exchange IC50” value in assay [2] was found to be 2 nM.
